Results taken from ChEMBL document CHEMBL1201862, “PubChem BioAssay data set” (2004).
The source made the active and inactive calls.

Columns and labels:
[1] = biological target: T1, Adenosylmethionine-8-amino-7-oxononanoate aminotransferase (Mycobacterium tuberculosis, UniProt P9WQ81); assay: Mycobacterium tuberculosis BioA enzyme inhibitor Measured in Biochemical System Using Plate Reader - 2163-02_Inhibitor_Dose_CherryPick_Activity.; format: functional, Mycobacterium tuberculosis UT205
T1 sequence (P9WQ81 whole entry): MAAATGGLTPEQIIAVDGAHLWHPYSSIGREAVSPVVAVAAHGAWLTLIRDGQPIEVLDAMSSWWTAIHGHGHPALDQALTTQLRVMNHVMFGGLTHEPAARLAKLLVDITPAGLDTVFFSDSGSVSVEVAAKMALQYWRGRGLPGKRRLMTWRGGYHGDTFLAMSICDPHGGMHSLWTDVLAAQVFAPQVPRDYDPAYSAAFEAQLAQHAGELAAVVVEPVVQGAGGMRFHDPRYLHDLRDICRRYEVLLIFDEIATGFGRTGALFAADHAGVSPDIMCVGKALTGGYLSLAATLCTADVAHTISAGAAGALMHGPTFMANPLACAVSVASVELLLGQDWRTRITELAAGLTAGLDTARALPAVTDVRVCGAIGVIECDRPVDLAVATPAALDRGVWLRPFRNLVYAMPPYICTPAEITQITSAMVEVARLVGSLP

[2] = biological target: Major prion protein (Homo sapiens, UniProt P04156); format: functional, cell-based
[3] = cells
[4] = biological target: Beta-galactosidase (Escherichia coli, UniProt Q8VNN2); assay: PubChem AID 485352; format: functional
[5] = biological target: T2, Type-1 angiotensin II receptor (Homo sapiens, UniProt P30556); assay: AT1 receptor antagonists, dose response, selectivity assay for APJ receptor antagonist project, cell-based, uHTS hits (AID 463214); format: functional;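 also: antagonist potency against angiotensin II stimulated AT1 response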
T2 sequence (P30556 whole entry): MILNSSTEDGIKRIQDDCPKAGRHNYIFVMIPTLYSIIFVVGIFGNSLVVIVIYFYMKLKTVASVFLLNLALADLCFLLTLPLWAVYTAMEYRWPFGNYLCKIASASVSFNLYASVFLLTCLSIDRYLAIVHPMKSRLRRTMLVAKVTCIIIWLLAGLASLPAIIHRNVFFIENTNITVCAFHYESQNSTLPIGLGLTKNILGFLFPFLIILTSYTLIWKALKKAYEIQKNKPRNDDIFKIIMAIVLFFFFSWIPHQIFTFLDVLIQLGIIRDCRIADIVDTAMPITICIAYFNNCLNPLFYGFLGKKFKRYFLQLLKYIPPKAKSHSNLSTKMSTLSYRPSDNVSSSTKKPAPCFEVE

[6] = biological target: T3, Protein skinhead-1 (Caenorhabditis elegans, UniProt P34707); format: functional
T3 sequence (P34707 whole entry): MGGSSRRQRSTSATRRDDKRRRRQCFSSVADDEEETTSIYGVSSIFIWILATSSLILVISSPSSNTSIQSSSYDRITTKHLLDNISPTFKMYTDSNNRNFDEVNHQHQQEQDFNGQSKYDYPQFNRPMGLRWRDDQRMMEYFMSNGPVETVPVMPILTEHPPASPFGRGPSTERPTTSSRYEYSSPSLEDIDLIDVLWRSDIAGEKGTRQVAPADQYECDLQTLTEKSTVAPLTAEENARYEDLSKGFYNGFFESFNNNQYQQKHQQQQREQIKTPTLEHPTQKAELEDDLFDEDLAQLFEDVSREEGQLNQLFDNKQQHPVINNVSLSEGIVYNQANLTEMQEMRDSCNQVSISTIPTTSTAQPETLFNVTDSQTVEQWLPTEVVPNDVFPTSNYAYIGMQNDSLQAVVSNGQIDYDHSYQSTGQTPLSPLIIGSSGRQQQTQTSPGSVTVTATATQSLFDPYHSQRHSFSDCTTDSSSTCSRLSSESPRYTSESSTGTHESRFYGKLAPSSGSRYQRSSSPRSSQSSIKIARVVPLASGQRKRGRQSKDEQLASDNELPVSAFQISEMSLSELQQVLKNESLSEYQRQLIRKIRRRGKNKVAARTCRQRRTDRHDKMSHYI

[7] = biological target: Luciferin 4-monooxygenase (Photinus pyralis, UniProt P08659); assay: firefly luciferase enzyme inhibitors, dose response, biochemical, luminescence (AID 1891)
[8] = Luminescence Cell-Based Dose Confirmation HTS to Identify Inhibitors of Platelet Dense Granule Release. [Related pubchem assays: 1663 (Primary HTS), 1678 (Summary of Project)]; format: functional
[9] = inhibitors of intracellular T. cruzi replication, confirmation, NIH3T3 host cells, beta-gal luminescence (AID 2044); format: functional, cell-based;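 also: intracellular parasites grown in NIH/3T3 mouse fibroblasts as host cells; luminescent beta-galactosidase reporter signal from transgenic T. cruzi replicating inside host cells; inhibitors lower the luminescence signal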
[10] = cytotoxicity toward NIH3T3 fibroblasts, dose response, counter-screen, cell-based, ATP luminescence, mouse fibroblasts (AID 2010); format: functional;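 also: cells exposed to compound for about 90 hours before reading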
[11] = Luminescence Cell-Based Dose Retest to Confirm Inhibitors of Cancer Stem Cells. [Related pubchem assays (depositor defined):AID2717, AID2721]; format: functional; conditions: Homo sapiens
[12] = biological target: Prothrombin (Homo sapiens, UniProt P00734); assay: Thrombin 1536 HTS Dose Response Confirmation. [Related pubchem assays: 1046 (Thrombin 1536 HTS; hits were confirmed in this assay)]; format: functional
[13] = biological target: T4, Long-chain-fatty-acid--AMP ligase FadD28 (Mycobacterium tuberculosis, UniProt P9WQ59); assay: Fluorescence polarization aasay to screen for inhibitors that compete for the binding of FadD28 to a bisubstrate Measured in Biochemical System Using Plate Reader - 2147-01_Inhibitor_Dose_CherryPick_Activity.; format: functional, Mycobacterium tuberculosis H37Rv
T4 sequence (P9WQ59 whole entry): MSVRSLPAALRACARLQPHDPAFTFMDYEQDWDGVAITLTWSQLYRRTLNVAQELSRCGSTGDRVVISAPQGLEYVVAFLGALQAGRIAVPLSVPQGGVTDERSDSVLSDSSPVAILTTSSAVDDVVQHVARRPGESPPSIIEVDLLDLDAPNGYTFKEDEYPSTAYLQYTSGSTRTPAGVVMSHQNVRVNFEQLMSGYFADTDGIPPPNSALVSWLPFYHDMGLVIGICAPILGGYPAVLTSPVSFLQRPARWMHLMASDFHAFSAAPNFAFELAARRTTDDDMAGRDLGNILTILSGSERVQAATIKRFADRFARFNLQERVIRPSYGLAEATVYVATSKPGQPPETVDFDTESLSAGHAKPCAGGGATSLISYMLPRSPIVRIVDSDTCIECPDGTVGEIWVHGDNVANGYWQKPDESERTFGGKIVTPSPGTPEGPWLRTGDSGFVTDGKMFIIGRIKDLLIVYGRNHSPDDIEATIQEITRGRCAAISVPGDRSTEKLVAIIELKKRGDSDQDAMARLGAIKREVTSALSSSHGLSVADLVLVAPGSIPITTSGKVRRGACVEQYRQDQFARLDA

[14] = biological target: SUMO-activating enzyme (Homo sapiens, UniProt Q9UBT2); assay: SUMOylation inhibitor hit validation, confirmation, SUMOylation inhibitor project, biochemical, AlphaScreen (AID 2018); format: functional
[15] = test system: BJ; assay: cytotoxicity toward BJ-TERT fibroblasts, dose response, cell-based, RAS-independent, luminescence (AID 1933); format: functional; conditions: Homo sapiens
[16] = cells; format: functional, cell-based
[17] = test system: BJ; assay: cells; format: functional, cell-based; conditions: Homo sapiens
[18] = cells; format: functional, cell-based; remark: listed apart in the source
[19] = test system: BJ; assay: cytotoxicity toward BJ-TERT-LT-ST fibroblasts, dose response, cell-based, RAS-independent, luminescence (AID 1935); format: functional; conditions: Homo sapiens;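 also: BJ fibroblasts immortalized with TERT plus LT and ST oncogenes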
[20] = cytotoxicity toward DRD oncogenic fibroblasts, dose response, cell-based, non-viral oncogenic, luminescence (AID 1934); format: functional; conditions: Homo sapiens
[21] = THP-1 cell cytotoxicity, dose response, cytotoxicity control for non-replicating M. tuberculosis project (AID 489025); format: functional
[22] = HepG2 cell cytotoxicity, dose response, cytotoxicity control for non-replicating M. tuberculosis project (AID 489018); format: functional; conditions: Mycobacterium tuberculosis
[23] = Vero E6 cell cytotoxicity, dose response, cytotoxicity control for non-replicating M. tuberculosis project, secondary assay (AID 492998); format: functional, VeroE6; conditions: Vero C1008
[24] = cells; format: functional
[25] = test system: INS1; assay: beta cell apoptosis inhibitors, cytokine rescue, dose response, luminescence, retest (AID 449756); format: functional, cell-based; conditions: Rattus norvegicus;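 also: cell death triggered by IL-1 beta plus TNF-alpha plus IFN-gamma mixture; protective hits raise ATP signal compared with cytokine alone wells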

SMILES: Cc1cc(C)n(-c2ccc(C(=O)Nc3ccc4c(c3)OCO4)cc2)n1
- AC50 [1]: 4.31 µM (active)

SMILES: Cc1nn(C)cc1CN(C)C(=O)c1cc(-c2ccccc2)nc2ccc(Br)cc12
- IC50 [2]: 6.12 µM (active)
- IC50 [3]: 75.1 µM (inactive)

SMILES: Cn1c(=O)c(C(=S)NC(=O)C2CC2)c(N)n(Cc2ccccc2)c1=O
- EC50 [4]: > 40 µM (inactive)
- IC50 [5]: > 40 µM (not active)

SMILES: O=C(NC(=S)NCCO)c1sc2ccccc2c1Cl
- IC50 [2]: 3.4 µM (active)
- IC50 [3]: > 138 µM (inactive)

SMILES: Cn1c(-c2ccc(Br)o2)nc2cc(Br)ccc21
- IC50 [6]: > 100 µM (inactive)

SMILES: O=C(Nc1ncc2c(n1)CC(c1ccco1)CC2=O)c1ccco1 (stereo not drawn)
- EC50 [7]: > 112 µM (not active)
- EC50 [8]: > 112 µM (not active)
- AC50 [1]: 6.29 µM (active)

SMILES: Cc1cc(C)c2sc(N(CCCN(C)C)C(=O)c3ccc(S(=O)(=O)N4CCCc5ccccc54)cc3)nc2c1
- EC50 [4]: > 40 µM (inactive)
- EC50 [9]: 0.452 µM (active)
- IC50 [5]: > 40 µM (not active)
- EC50 [10]: 12.2 µM (active)
- AC50 [11]: 4.46 µM (active)

SMILES: CCOC(=O)N1CCN(C(=O)CSCC(=O)Nc2nc(-c3ccc(Cl)s3)cs2)CC1
- IC50 [12]: 1.95 µM (active)

SMILES: Cc1ccc(-n2nc3c(=S)[nH]nc(C)c3c2C)cc1
- IC50 [2]: 0.143 µM (active)

SMILES: Cc1ccc(-n2nc3c(S)nnc(C)c3c2C)cc1
- IC50 [3]: > 138 µM (inactive)

SMILES: COC(=O)c1cc(NC(=O)CN(c2ccc3c(c2)OCO3)S(C)(=O)=O)ccc1Cl
- IC50 [6]: > 100 µM (inactive)

SMILES: COc1ccccc1-n1c(C)c(C(=O)O)c2cc(OC)c3ccccc3c21
- AC50 [13]: 60.9 µM (active)

SMILES: COC(=O)c1n[nH]c(NC(=O)C(C)(C)C)n1
- IC50 [12]: 1.43 µM (active)

SMILES: O=C(COC(=O)c1cccc(S(=O)(=O)N2CCCCCC2)c1)Nc1ccccc1
- AC50 [13]: > 100 µM (inactive)

SMILES: COc1ccc(C(=O)Nc2ccc(Cn3ccnc3)cc2)cc1OC
- AC50 [1]: 7.74 µM (active)

SMILES: O=C(COC(=O)c1cnccn1)c1cccc([N+](=O)[O-])c1
- EC50 [4]: > 40 µM (inactive)
- IC50 [5]: 13.6 µM (active)

SMILES: COC(=O)c1c(NC(=O)CN2CCN(Cc3ccc4c(c3)OCO4)CC2)sc(C)c1C
- EC50 [9]: 1.88 µM (active)
- EC50 [10]: > 60 µM (not active)
- IC50 [6]: > 100 µM (inactive)

SMILES: Clc1ccc(Cn2nnc(-c3ccccc3)n2)cc1
- IC50 [6]: 12.6 µM (active)

SMILES: O=c1[nH]c(=O)n(Cc2ccccc2)c2c1C(C(F)(F)F)(C(F)(F)F)N=C(c1ccco1)N2
- IC50 [12]: 31.5 µM (active)

SMILES: Cc1ccc(/C=C(\CCC(=O)O)c2nc3ccccc3s2)cc1[N+](=O)[O-]
- AC50 [1]: 0.153 µM (active)

SMILES: CCc1c(C(=O)NCCc2ccc(OC)c(OC)c2)[nH]c(C)c1C(C)=O
- AC50 [1]: 3.74 µM (active)

SMILES: COc1cccc2sc(Nc3nc(C)c(C(C)=O)s3)nc12
- EC50 [4]: > 40 µM (inactive)
- EC50 [9]: 1.82 µM (active)
- IC50 [5]: 23.3 µM (not active)
- EC50 [10]: 7.09 µM (active)

SMILES: O=C1/C(=C/c2coc3ccc(O)cc3c2=O)SC(=S)N1c1ccccc1
- IC50 [14]: 39.4 µM (active)

SMILES: Cc1cc(NC(=O)COc2ccc3ccccc3c2Br)no1
- IC50 [2]: 1.39 µM (active)
- IC50 [3]: 133 µM (inactive)

SMILES: Cc1nn(-c2ncc(C(F)(F)F)cc2Cl)c(=O)n1-c1ccccc1
- IC50 [6]: > 100 µM (inactive)

SMILES: O=[N+]([O-])c1cccnc1N/N=C/c1ccccc1O
- EC50 [15]: 9.77 µM (active)
- EC50 [16]: > 350 µM (not active)
- EC50 [17]: 10.9 µM (active)
- EC50 [18]: 6.41 µM (active)
- EC50 [19]: 21.6 µM (active)
- EC50 [20]: 8.92 µM (active)
- CC50 [21]: 0.766 µM (active)
- CC50 [22]: 14.4 µM (active)
- CC50 [23]: 3.08 µM (active)
- IC50 [24]: 3.92 µM (active)
- AC50 [25]: 0.691 µM (active)

SMILES: Cc1ccc(NC(C)C(=O)N/N=C/c2ccc([N+](=O)[O-])s2)cc1 (stereo not drawn)
- EC50 [9]: 0.494 µM (active)
- EC50 [10]: > 60 µM (not active)
- CC50 [21]: 25.9 µM (active)
- CC50 [23]: 15.8 µM (active)
- IC50 [24]: 7.04 µM (active)

SMILES: Cc1ccc(OCC(=O)N/N=C\c2c(C)n(C)c3ccccc23)c([N+](=O)[O-])c1
- AC50 [13]: 68 µM (active)
